Data from ChEMBL document CHEMBL1201862, “PubChem BioAssay data set” (2004).
Values joined by “and” are separate entries in the source; they are usually repeats but may differ in a detail not shown here. Equal values may be shown once. Active and inactive are the calls of the source.

Key:
Type in all cases: functional
[1] = target: T1, Apoptotic protease-activating factor 1 (Homo sapiens, UniProt O14727); assay: activation of Apaf-1 mediated apoptosis – fluorescent, uHTS hits, dose response (AID 588554)
T1 sequence (O14727 whole entry): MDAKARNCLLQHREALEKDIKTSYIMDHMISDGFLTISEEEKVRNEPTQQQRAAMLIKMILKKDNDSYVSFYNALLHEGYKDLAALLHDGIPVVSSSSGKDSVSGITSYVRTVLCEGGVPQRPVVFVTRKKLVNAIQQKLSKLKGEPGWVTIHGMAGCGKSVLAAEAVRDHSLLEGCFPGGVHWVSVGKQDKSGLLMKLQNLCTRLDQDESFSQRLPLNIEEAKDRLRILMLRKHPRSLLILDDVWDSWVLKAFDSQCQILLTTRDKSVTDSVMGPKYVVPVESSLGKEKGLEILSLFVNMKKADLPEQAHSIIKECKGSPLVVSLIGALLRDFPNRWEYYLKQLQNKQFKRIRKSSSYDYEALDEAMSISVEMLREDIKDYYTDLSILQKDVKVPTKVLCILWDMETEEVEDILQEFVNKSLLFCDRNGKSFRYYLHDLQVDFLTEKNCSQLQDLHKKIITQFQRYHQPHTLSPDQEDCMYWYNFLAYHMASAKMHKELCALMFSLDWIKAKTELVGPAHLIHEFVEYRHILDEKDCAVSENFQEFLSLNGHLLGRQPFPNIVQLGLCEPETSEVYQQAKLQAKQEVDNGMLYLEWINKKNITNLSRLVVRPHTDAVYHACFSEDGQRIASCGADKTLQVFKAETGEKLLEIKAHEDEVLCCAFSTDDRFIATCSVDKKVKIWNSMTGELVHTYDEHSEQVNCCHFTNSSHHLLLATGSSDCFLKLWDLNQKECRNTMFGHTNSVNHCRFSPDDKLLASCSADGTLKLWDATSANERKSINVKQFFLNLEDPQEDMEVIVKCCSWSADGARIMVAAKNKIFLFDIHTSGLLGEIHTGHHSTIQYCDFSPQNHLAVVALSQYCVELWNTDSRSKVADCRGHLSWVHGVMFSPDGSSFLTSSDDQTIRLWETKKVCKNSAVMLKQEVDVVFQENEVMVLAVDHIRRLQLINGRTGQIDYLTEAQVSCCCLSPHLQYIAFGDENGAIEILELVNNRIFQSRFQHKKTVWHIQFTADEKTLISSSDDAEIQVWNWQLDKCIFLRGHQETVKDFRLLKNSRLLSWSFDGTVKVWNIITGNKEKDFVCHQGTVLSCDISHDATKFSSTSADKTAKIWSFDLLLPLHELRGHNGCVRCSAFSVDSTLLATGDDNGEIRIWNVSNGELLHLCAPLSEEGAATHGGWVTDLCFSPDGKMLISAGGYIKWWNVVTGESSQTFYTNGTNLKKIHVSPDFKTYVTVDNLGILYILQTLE

[2] = SAR analysis of small molecule activators of Apaf-1 using a LZ-Caspase-9/Caspase-3 Fluorescent Selectivity assay - Set 2.; settings: read-out: EC50_Mean
[3] = target: T1, Apoptotic protease-activating factor 1; assay: SAR analysis of small molecule Activators of Apaf-1 in a Fluorescent assay.; settings: read-out: EC50_Mean
[4] = target: T1, Apoptotic protease-activating factor 1; assay: SAR analysis of small molecule Activators of Apaf-1 in a Fluorescent assay - set 2.; settings: read-out: EC50_Mean
[5] = target: Protein kinase C theta type (Homo sapiens, UniProt Q04759); assay: Navigating the Kinome. Panel member name: PRKCQ
[6] = target: Ribosomal protein S6 kinase alpha-3 (Homo sapiens, UniProt P51812);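 also: measured within a kinome-wide profiling panel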
[7] = target: Dual specificity protein kinase CLK2 (Homo sapiens, UniProt P49760)
[8] = target: Dual specificity mitogen-activated protein kinase kinase 1 (Homo sapiens, UniProt Q02750); assay: Navigating the Kinome. Panel member name: MAP2K1
[9] = target: Tyrosine-protein kinase JAK2 (Homo sapiens, UniProt O60674);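 also: JAK2 tested as one member of a kinase panel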
[10] = target: Serine/threonine-protein kinase TBK1 (Homo sapiens, UniProt Q9UHD2); assay: Navigating the Kinome. Panel member name: TBK1
[11] = target: 5'-AMP-activated protein kinase catalytic subunit alpha-1 (Homo sapiens, UniProt Q13131)
[12] = target: ALK tyrosine kinase receptor (Homo sapiens, UniProt Q9UM73);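 also: ALK tested as one member of a kinase panel screen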
[13] = target: Proto-oncogene tyrosine-protein kinase receptor Ret (Homo sapiens, UniProt P07949);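 also: measured within a kinome-wide profiling panel, RET as the panel member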
[14] = target: Tyrosine-protein kinase receptor TYRO3 (Homo sapiens, UniProt Q06418);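 also: TYRO3 value obtained as one member of a kinome-wide profiling panel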
[15] = target: Serine/threonine-protein kinase D3 (Homo sapiens, UniProt O94806);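 also: determined within a kinase panel screen, with PRKCN as the panel member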
[16] = target: Death-associated protein kinase 3 (Homo sapiens, UniProt O43293);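 also: measured as one member of a kinome-wide profiling panel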
Activin receptor type-1 = Activin receptor type-1 (Homo sapiens, UniProt Q04771); assay: Navigating the Kinome. Panel member name: ACVR1
[17] = target: Mitogen-activated protein kinase 8 (Homo sapiens, UniProt P45983);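 also: value comes from one member of a kinome-wide kinase profiling panel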
[18] = target: Serine/threonine-protein kinase pim-1 (Homo sapiens, UniProt P11309)
Aurora kinase A = Aurora kinase A (Homo sapiens, UniProt O14965);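 also: value from the Navigating the Kinome kinase panel profiling, panel entry STK6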
[19] = target: Tyrosine-protein kinase BTK (Homo sapiens, UniProt Q06187)
[20] = target: Serine/threonine-protein kinase PAK 4 (Homo sapiens, UniProt O96013);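 also: value obtained within a kinome profiling panel in which PAK4 was one of the panel members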
[21] = target: Fibroblast growth factor receptor 1 (Homo sapiens, UniProt P11362)
[22] = target: Tyrosine-protein kinase JAK3 (Homo sapiens, UniProt P52333)
[23] = target: Mitogen-activated protein kinase 9 (Homo sapiens, UniProt P45984);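 also: value from a kinome panel profiling assay, MAPK9 panel entry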
[24] = target: Serine/threonine-protein kinase TAO1 (Homo sapiens, UniProt Q7L7X3)
[25] = target: High affinity nerve growth factor receptor (Homo sapiens, UniProt P04629);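 also: NTRK1 tested as one member of a kinome-wide profiling panel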
[26] = target: Glycogen synthase kinase-3 alpha (Homo sapiens, UniProt P49840);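 also: GSK3A result taken from a broad kinome-wide kinase panel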
[27] = target: Mitogen-activated protein kinase kinase kinase kinase 2 (Homo sapiens, UniProt Q12851);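 also: measured as one member of a kinome-wide kinase panel, with MAP4K2 as the panel entry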
[28] = target: Hepatocyte growth factor receptor (Homo sapiens, UniProt P08581);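 also: kinase panel profiling across the kinome, with MET as the panel member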
Activated CDC42 kinase 1 = Activated CDC42 kinase 1 (Homo sapiens, UniProt Q07912); assay: Navigating the Kinome. Panel member name: ACK1
[29] = target: Receptor-type tyrosine-protein kinase FLT3 (Homo sapiens, UniProt P36888);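 also: FLT3 was tested as one member of a kinome-wide kinase panel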
[30] = target: Tyrosine-protein kinase ABL1 (Homo sapiens, UniProt P00519)
[31] = target: Vascular endothelial growth factor receptor 2 (Homo sapiens, UniProt P35968)
[32] = target: G protein-coupled receptor kinase 5 (Homo sapiens, UniProt P34947); assay: Navigating the Kinome. Panel member name: GPRK5
[33] = target: Cyclin-dependent kinase 5 (Homo sapiens, UniProt Q00535);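 also: CDK5 measured as one member of a kinase profiling panel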
[34] = target: Insulin-like growth factor 1 receptor (Homo sapiens, UniProt P08069); assay: Navigating the Kinome. Panel member name: IGF1R
[35] = target: Dual specificity tyrosine-phosphorylation-regulated kinase 1B (Homo sapiens, UniProt Q9Y463); assay: Navigating the Kinome. Panel member name: DYRK1B
[36] = target: cAMP-dependent protein kinase catalytic subunit PRKX (Homo sapiens, UniProt P51817)
[37] = target: Platelet-derived growth factor receptor alpha (Homo sapiens, UniProt P16234); assay: Navigating the Kinome. Panel member name: PDGFRA
[38] = target: Leucine-rich repeat serine/threonine-protein kinase 2 (Homo sapiens, UniProt Q5S007);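 also: value from a broad kinome-wide panel profiling study in which LRRK2 was one of the kinases tested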
Aurora kinase B = Aurora kinase B (Homo sapiens, UniProt Q96GD4)
[39] = target: Rho-associated protein kinase 1 (Homo sapiens, UniProt Q13464);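 also: measured within a broad kinome-wide panel profiling many kinases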
[40] = target: Tyrosine-protein kinase Fyn (Homo sapiens, UniProt P06241)
[41] = target: Cyclin-dependent kinase 8 (Homo sapiens, UniProt P49336); assay: Navigating the Kinome. Panel member name: CDK8
[42] = target: Cyclin-dependent kinase 7 (Homo sapiens, UniProt P50613);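 also: value comes from a kinome-wide kinase profiling panel in which CDK7 is one member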
[43] = target: Vascular endothelial growth factor receptor 1 (Homo sapiens, UniProt P17948);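 also: measured within a kinome-wide profiling panel, FLT1 as the panel member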
[44] = target: Glycogen synthase kinase-3 beta (Homo sapiens, UniProt P49841);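 also: value comes from a broad kinome profiling panel, with GSK3B as the panel member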
[45] = target: Cyclin-dependent kinase 9 (Homo sapiens, UniProt P50750);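 also: value from the CDK9 entry of a kinome-spanning kinase panel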
[46] = target: BDNF/NT-3 growth factors receptor (Homo sapiens, UniProt Q16620);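 also: NTRK2 measured as one member of a broad kinome-wide kinase profiling panel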
[47] = target: cAMP-dependent protein kinase catalytic subunit alpha (Homo sapiens, UniProt P17612)
[48] = target: Dual specificity protein kinase CLK4 (Homo sapiens, UniProt Q9HAZ1)
[49] = target: Mitogen-activated protein kinase kinase kinase kinase 4 (Homo sapiens, UniProt O95819)
[50] = target: Macrophage-stimulating protein receptor (Homo sapiens, UniProt Q04912); assay: Navigating the Kinome. Panel member name: MST1R
[51] = target: Macrophage colony-stimulating factor 1 receptor (Homo sapiens, UniProt P07333);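 also: value comes from the Navigating the Kinome screening panel, CSF1R member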
[52] = target: Dual specificity mitogen-activated protein kinase kinase 2 (Homo sapiens, UniProt P36507); assay: Navigating the Kinome. Panel member name: MAP2K2
[53] = target: Dual specificity tyrosine-phosphorylation-regulated kinase 1A (Homo sapiens, UniProt Q13627);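 also: measured against DYRK1A as one member of a broad kinome profiling panel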
[54] = target: Inhibitor of nuclear factor kappa-B kinase subunit epsilon (Homo sapiens, UniProt Q14164); assay: Navigating the Kinome. Panel member name: IKBKE
[55] = target: Calcium/calmodulin-dependent protein kinase type II subunit alpha (Homo sapiens, UniProt Q9UQM7); assay: Navigating the Kinome. Panel member name: CAMK2A
[56] = target: Leukocyte tyrosine kinase receptor (Homo sapiens, UniProt P29376); assay: Navigating the Kinome. Panel member name: LTK
[57] = target: Mitogen-activated protein kinase 14 (Homo sapiens, UniProt Q16539);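 also: part of a kinome-wide panel, MAPK14 entry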
Mitogen-activated protein kinase 14, sequence (Q16539 whole entry): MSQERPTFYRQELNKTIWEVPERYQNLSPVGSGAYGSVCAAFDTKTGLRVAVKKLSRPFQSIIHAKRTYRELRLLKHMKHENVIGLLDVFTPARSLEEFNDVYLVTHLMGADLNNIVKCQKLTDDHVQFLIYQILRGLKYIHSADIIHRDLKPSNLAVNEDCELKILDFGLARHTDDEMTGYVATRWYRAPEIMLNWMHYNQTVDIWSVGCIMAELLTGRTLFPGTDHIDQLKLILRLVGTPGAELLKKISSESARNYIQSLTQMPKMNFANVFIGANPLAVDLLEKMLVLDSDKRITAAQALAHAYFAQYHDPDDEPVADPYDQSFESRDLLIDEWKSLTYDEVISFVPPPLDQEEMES

Mitogen-activated protein kinase kinase kinase kinase 4, sequence (O95819 whole entry): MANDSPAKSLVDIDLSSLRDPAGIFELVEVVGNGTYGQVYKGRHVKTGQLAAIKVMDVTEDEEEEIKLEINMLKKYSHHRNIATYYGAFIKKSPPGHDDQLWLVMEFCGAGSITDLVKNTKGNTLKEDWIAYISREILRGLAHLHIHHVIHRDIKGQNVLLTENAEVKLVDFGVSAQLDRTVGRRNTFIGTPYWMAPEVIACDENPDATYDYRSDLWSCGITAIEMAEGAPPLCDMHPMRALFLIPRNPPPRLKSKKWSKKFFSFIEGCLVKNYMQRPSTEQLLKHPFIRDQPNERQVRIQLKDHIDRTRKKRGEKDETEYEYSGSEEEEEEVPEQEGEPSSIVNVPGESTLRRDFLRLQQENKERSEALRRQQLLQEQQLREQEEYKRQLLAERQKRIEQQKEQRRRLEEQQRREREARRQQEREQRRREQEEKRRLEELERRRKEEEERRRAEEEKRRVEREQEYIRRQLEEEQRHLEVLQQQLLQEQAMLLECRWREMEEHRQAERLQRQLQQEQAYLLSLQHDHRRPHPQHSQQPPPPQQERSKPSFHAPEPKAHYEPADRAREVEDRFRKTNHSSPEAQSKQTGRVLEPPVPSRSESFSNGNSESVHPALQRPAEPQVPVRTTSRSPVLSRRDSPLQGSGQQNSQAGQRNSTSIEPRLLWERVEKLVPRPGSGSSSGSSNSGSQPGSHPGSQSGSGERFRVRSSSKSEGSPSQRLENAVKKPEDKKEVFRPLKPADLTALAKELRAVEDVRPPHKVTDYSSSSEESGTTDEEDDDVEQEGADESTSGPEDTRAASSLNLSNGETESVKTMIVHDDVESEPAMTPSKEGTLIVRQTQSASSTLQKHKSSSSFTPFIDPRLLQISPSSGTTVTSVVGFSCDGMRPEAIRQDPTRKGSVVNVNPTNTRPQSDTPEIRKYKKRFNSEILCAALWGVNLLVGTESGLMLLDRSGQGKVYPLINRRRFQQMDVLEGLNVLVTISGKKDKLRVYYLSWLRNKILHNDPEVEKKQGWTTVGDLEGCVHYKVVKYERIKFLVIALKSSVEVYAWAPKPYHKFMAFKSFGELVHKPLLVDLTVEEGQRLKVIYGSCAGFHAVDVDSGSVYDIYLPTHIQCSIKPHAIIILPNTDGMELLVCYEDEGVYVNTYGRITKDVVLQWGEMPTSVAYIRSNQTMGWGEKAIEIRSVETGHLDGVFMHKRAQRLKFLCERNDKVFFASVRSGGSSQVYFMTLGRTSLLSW
Vascular endothelial growth factor receptor 2, sequence (P35968 whole entry): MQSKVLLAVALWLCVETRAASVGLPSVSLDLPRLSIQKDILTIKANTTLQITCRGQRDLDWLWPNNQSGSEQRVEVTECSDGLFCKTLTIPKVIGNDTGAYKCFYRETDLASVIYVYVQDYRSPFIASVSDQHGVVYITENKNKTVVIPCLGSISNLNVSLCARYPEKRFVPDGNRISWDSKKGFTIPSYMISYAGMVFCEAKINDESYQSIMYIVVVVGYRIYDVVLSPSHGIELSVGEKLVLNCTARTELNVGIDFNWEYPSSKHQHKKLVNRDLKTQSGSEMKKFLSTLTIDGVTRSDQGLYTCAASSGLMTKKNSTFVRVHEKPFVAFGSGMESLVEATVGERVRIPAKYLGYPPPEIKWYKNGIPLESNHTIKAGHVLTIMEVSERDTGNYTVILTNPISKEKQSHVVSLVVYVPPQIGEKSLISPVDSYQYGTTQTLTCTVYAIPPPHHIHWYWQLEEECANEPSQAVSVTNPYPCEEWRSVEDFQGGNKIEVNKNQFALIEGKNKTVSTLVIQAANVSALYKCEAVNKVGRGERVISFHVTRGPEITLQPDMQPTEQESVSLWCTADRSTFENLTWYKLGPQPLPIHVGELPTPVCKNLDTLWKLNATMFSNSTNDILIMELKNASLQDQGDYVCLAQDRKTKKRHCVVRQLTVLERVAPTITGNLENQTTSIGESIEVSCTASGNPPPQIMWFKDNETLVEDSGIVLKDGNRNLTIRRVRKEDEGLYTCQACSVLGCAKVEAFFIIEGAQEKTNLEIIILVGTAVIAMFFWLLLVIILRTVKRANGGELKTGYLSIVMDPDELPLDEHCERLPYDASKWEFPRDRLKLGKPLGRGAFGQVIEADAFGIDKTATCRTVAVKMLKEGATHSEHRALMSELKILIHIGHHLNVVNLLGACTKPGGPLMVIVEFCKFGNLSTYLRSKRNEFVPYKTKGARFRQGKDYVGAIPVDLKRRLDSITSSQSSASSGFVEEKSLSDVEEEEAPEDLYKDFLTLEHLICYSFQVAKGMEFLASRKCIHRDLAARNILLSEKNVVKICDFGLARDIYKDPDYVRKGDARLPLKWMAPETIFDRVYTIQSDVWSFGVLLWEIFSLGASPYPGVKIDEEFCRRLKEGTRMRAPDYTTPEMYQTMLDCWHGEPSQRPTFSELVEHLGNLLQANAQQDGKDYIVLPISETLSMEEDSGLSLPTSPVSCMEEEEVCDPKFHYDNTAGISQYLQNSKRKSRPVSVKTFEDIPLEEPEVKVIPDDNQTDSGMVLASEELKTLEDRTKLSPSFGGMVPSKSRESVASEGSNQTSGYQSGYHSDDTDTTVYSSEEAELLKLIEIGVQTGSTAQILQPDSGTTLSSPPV
Aurora kinase A, sequence (O14965 whole entry): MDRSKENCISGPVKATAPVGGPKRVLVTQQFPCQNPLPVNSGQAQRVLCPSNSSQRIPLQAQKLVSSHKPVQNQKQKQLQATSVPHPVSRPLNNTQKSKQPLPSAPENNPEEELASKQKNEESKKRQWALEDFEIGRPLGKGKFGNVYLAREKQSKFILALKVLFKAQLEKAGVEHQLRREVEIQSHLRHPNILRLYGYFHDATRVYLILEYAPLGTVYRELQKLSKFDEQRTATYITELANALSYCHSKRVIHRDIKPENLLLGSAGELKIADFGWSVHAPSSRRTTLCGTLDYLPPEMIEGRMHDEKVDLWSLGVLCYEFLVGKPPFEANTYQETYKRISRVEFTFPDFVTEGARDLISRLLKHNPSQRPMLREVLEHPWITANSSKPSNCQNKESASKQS
Dual specificity protein kinase CLK4, sequence (Q9HAZ1 whole entry): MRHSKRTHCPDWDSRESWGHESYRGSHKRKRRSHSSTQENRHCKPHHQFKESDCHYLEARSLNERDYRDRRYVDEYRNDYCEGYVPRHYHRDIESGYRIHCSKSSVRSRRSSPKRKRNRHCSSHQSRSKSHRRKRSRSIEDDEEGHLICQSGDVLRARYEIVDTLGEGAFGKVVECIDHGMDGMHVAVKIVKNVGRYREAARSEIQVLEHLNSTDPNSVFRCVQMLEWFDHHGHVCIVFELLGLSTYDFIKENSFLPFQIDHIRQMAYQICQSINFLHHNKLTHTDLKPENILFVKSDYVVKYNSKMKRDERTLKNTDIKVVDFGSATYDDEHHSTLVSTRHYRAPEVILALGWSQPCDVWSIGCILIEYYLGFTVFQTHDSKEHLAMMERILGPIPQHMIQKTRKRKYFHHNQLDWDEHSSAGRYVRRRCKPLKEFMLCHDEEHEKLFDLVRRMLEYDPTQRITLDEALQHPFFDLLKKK
5'-AMP-activated protein kinase catalytic subunit alpha-1, sequence (Q13131 whole entry): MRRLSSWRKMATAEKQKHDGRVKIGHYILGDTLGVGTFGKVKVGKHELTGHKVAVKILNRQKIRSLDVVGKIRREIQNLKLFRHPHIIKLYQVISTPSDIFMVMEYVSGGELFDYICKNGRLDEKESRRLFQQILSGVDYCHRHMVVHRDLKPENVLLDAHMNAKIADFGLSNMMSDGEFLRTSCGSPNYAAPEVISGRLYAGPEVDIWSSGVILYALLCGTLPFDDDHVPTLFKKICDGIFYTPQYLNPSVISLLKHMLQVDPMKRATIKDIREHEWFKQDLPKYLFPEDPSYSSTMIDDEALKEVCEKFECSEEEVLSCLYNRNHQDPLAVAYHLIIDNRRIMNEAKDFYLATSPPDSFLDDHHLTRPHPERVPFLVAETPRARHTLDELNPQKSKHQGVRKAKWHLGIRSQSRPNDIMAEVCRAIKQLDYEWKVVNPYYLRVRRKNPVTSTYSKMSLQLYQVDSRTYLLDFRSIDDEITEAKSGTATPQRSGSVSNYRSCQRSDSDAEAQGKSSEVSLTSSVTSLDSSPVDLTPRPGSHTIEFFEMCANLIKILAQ
Mitogen-activated protein kinase 9, sequence (P45984 whole entry): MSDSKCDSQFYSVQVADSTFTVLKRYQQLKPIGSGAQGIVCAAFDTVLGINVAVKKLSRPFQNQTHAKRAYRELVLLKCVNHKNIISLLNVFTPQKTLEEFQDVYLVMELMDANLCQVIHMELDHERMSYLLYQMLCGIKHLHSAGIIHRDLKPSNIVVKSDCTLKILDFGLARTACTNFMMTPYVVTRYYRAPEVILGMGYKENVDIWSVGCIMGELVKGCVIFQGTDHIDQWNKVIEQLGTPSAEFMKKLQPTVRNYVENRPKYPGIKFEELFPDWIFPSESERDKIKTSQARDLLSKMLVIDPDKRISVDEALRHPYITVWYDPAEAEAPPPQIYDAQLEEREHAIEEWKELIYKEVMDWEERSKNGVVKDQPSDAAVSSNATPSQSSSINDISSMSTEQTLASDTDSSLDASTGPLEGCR

CC(Cc1c[nH]c2ccccc12)C(=O)O (stereo unspecified)
EC50 [1]: 2.25 µM (active)
EC50 [2]: > 99 µM (inactive) and > 100 µM (inactive)
EC50 [3]: 8.95 µM (active)
EC50 [4]: 9.48 µM (active) and 8.03 µM (active)

O=C(Nc1cccc(C(F)(F)F)n1)Nc1ccnc2ccc(Cl)cc12
Ki [5]: > 2.51 µM (inactive)
Ki [6]: > 3.98 µM (inactive)
Ki [7]: 3.16 µM (active)
Ki [8]: > 3.16 µM (inactive)
Ki [9]: > 2.51 µM (inactive)
Ki [10]: > 3.16 µM (inactive)
Ki [11]: > 3.16 µM (inactive)
Ki [12]: > 6.31 µM (inactive)
Ki [13]: > 3.16 µM (inactive)
Ki [14]: 2.51 µM (active)
Ki [15]: > 3.98 µM (inactive)
Ki [16]: 5.01 µM (active)
Ki (Activin receptor type-1): 1.58 µM (active)
Ki [17]: > 5.01 µM (inactive)
Ki [18]: > 6.31 µM (inactive)
Ki (Aurora kinase A): > 1.58 µM (inactive)
Ki [19]: > 6.31 µM (inactive)
Ki [20]: > 5.01 µM (inactive)
Ki [21]: > 3.98 µM (inactive)
Ki [22]: > 5.01 µM (inactive)
Ki [23]: > 3.98 µM (inactive)
Ki [24]: > 6.31 µM (inactive)
Ki [25]: > 3.16 µM (inactive)
Ki [26]: 0.0631 µM (active)
Ki [27]: > 2.51 µM (inactive)
Ki [28]: > 2.51 µM (inactive)
Ki (Activated CDC42 kinase 1): > 3.98 µM (inactive)
Ki [29]: > 3.16 µM (inactive)
Ki [30]: 2 µM (active)
Ki [31]: > 2.51 µM (inactive)
Ki [32]: > 3.98 µM (inactive)
Ki [33]: > 3.16 µM (inactive)
Ki [34]: > 2.51 µM (inactive)
Ki [35]: 1.58 µM (active)
Ki [36]: > 3.16 µM (inactive)
Ki [37]: > 2.51 µM (inactive)
Ki [38]: > 2.51 µM (inactive)
Ki (Aurora kinase B): > 3.98 µM (inactive)
Ki [39]: > 3.98 µM (inactive)
Ki [40]: > 6.31 µM (inactive)
Ki [41]: 0.0631 µM (active)
Ki [42]: > 3.98 µM (inactive)
Ki [43]: > 3.98 µM (inactive)
Ki [44]: 0.0398 µM (active)
Ki [45]: > 1.58 µM (inactive)
Ki [46]: > 3.98 µM (inactive)
Ki [47]: > 1.26 µM (inactive)
Ki [48]: 0.158 µM (active)
Ki [49]: > 5.01 µM (inactive)
Ki [50]: > 3.98 µM (inactive)
Ki [51]: > 2.51 µM (inactive)
Ki [52]: > 3.98 µM (inactive)
Ki [53]: > 2 µM (inactive)
Ki [54]: > 3.16 µM (inactive)
Ki [55]: > 7.94 µM (inactive)
Ki [56]: > 2.51 µM (inactive)
Ki [57]: > 3.98 µM (inactive)
